# Reference: US20220194983A1, “PEPTIDE LIGANDS FOR BINDING TO PSMA” (BicycleTx Limited, priority 2018, published 2022)
# Values joined by “and” are separate entries in the source; they are usually repeats but may differ in a detail not shown here. Identical values can stand only once.
# Biological target: PSMA (Homo sapiens, UniProt Q04609)
# Test: measured PSMA affinities (ka, kd, KD) of Dap(Me) substituted bicycles, Table 1
# Format: binding
# Conditions: for ka: association rate; for kd: dissociation rate
# Sequence of PSMA (Q04609 whole entry): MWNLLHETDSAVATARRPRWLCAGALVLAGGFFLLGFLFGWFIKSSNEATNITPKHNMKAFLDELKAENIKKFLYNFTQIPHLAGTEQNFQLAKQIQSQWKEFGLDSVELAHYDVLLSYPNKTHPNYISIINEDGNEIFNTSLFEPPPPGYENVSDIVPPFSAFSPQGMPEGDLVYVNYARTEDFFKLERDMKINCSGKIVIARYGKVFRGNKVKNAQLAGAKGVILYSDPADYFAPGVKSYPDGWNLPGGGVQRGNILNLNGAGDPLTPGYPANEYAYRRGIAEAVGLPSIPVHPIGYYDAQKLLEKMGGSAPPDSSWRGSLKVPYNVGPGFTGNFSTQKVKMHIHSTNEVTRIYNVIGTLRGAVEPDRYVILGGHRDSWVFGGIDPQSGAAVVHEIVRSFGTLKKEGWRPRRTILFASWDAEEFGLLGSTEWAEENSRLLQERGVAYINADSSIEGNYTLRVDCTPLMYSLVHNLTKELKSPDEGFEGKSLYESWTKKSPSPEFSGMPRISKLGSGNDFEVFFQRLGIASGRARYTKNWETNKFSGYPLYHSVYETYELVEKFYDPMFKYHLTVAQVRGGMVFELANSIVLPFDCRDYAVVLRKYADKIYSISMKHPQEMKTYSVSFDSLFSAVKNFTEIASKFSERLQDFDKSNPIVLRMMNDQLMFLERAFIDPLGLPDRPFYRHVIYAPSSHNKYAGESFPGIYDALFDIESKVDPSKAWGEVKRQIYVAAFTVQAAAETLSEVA
Substance,ka,kd
[Ac][dE]V[Dap(Me)]KDCF[Nle][Nle]EDGT[Dap(Me)]A [BCY00009314],3.79E+04 M1s1,3.86E−02 s1
[Ac][dE]V[Dap(Me)]WDCFL[Nle]EDGT[Dap(Me)]A [BCY00009306],9.04E+04 M1s1,1.97E−02 s1
[Ac][dE]V[Dap(Me)][2Nal]DCF[Nle][Nle]EDGT[Dap(Me)]A [BCY00009303],8.74E+04 M1s1,1.86E−02 s1
[Ac][dE]V[Dap(Me)]WDCY[Nle][Nle]EDGT[Dap(Me)]A [BCY00009304],1.03E+05 M1s1,1.24E−02 s1
[Ac][dE]V[Dap(Me)]WDCF[Nle][tBuAla]EDGT[Dap(Me)]A [BCY00009311],2.51E+04 M1s1,3.10E−03 s1
[Ac][dE]V[Dap(Me)]WDCF[Nle][Hse(Me)]EDGT[Dap(Me)]A [BCY00009309],5.17E+04 M1s1,2.93E−01 s1
[Ac][Gla]V[Dap(Me)]WDCF[Nle][Nle]EDGT[Dap(Me)]A [BCY00009312],1.01E+05 M1s1 and 7.35E+04 M1s1,7.77E−03 s1 and 1.21E−02 s1
[Ac][dE]V[Dap(Me)]WDCF[Nle]LEDGT[Dap(Me)]A [BCY00009310],5.93E+04 M1s1,4.32E−02 s1
[Ac][dE]V[Dap(Me)]WDCF[tBuAla][Nle]EDGT[Dap(Me)]A [BCY00009307],6.71E+04 M1s1,3.26E−02 s1
[Ac][dE]V[Dap(Me)]WDCF[Nle][Nle]EDGT[Dap(Me)]A [BCY00009300],7.04E+04 M1s1,1.02E−02 s1
[Ac][dE]V[Dap(Me)]WDCFY[Nle]EDGT[Dap(Me)]A [BCY00009308],8.73E+04 M1s1,2.88E−02 s1
[Ac][dE]V[Dap(Me)]WDCK[Nle][Nle]EDGT[Dap(Me)]A [BCY00009315],2.81E+04 M1s1,4.62E−02 s1
[Glutarate][dE]V[Dap(Me)]WDCF[Nle][Nle]EDGT[Dap(Me)]A [BCY00009313],1.24E+05 M1s1,9.81E−03 s1
[Ac][dE]V[Dap(Me)]WDCF[Hse(Me)][Nle]EDGT[Dap(Me)]A [BCY00009305],4.32E+04 M1s1,5.35E−02 s1
